Test results reported in PubChem BioAssay AID248 (DTP/NCI, 2004).
“And” between values parts separate entries of the source, which are not always exact repeats. Equal values may be shown once. Toxic doses and inconclusive results are not listed.

Tested on: L1210 leukemia ip in BDF1 mice, survival T/C
Assay: NCI In Vivo Anticancer Drug Screen. Data for tumor model L1210 Leukemia (intraperitoneal) in B6D2F1 (BDF1) mice
Details: endpoint: mean survival time, higher = longer survival
Summary of the method: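 Value reflects the ratio of survival in compound-treated mice to survival in vehicle-treated controls, with both groups carrying the same transplanted tumor.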

[1] = dose: 100.0 mg/kg/injection, schedule: Q04DX003 (ip), vehicle: Klucel (hydroxypropylcellulose) (HPC)
[2] = dose: 200.0 mg/kg/injection, schedule: Q04DX003 (ip), vehicle: Klucel (hydroxypropylcellulose) (HPC)
[3] = dose: 400.0 mg/kg/injection, schedule: Q04DX003 (ip), vehicle: Klucel (hydroxypropylcellulose) (HPC)
[4] = dose: 100.0 mg/kg/injection, schedule: Q01DX009 (ip), vehicle: Klucel (hydroxypropylcellulose) (HPC)
[5] = dose: 200.0 mg/kg/injection, schedule: Q01DX009 (ip), vehicle: Klucel (hydroxypropylcellulose) (HPC)
[6] = dose: 400.0 mg/kg/injection, schedule: Q01DX009 (ip), vehicle: Klucel (hydroxypropylcellulose) (HPC)

COc1ccc(N=C(CCl)Nc2ccc(OC)cc2)cc1
T/C (dose: 100.0 mg/kg/injection, schedule: Q04DX002 (ip), vehicle: Klucel (hydroxypropylcellulose) (HPC)): 94 % of control | T/C (dose: 200.0 mg/kg/injection, schedule: Q04DX002 (ip), vehicle: Klucel (hydroxypropylcellulose) (HPC)): 88 % of control | T/C (dose: 400.0 mg/kg/injection, schedule: Q04DX002 (ip), vehicle: Klucel (hydroxypropylcellulose) (HPC)): 109 % of control

CC(c1ccccc1)n1cnc2c(=S)nc[nH]c21 (centres undefined)
T/C (dose: 100.0 mg/kg/injection, schedule: Q01DX001 (ip), vehicle: saline): 92 % of control | T/C (dose: 200.0 mg/kg/injection, schedule: Q01DX001 (ip), vehicle: saline): 95 % of control | T/C (dose: 400.0 mg/kg/injection, schedule: Q01DX001 (ip), vehicle: saline): 103 % of control

Nc1c2c(=O)[nH]c(=O)c2c(N)c2c(=O)c3ccccc3c(=O)c12
T/C (dose: 100.0 mg/kg/injection, schedule: Q01DX001 (ip), vehicle: acetone): 93 % of control | T/C (dose: 200.0 mg/kg/injection, schedule: Q01DX001 (ip), vehicle: acetone): 103 % of control | T/C (dose: 400.0 mg/kg/injection, schedule: Q01DX001 (ip), vehicle: acetone): 103 % of control

O=S(=O)(Nc1ccc2ccccc2c1)c1cccc2cccnc12
T/C [1]: 98 % of control | T/C [2]: 93 % of control | T/C [3]: 95 % of control

[Cu+2].[NH-]C1C(Cl)CCC2C(Cl)CC[N-]C12 (centres undefined)
T/C (dose: 6.0 mg/kg/injection, schedule: Q04DX003 (ip), vehicle: Klucel (hydroxypropylcellulose) (HPC)): 91 % of control | T/C (dose: 12.0 mg/kg/injection, schedule: Q01DX001 (ip), vehicle: other): 108 % of control | T/C (dose: 12.0 mg/kg/injection, schedule: Q04DX003 (ip), vehicle: Klucel (hydroxypropylcellulose) (HPC)): 102 % of control | T/C (dose: 25.0 mg/kg/injection, schedule: Q01DX001 (ip), vehicle: other): 108 % of control

CC1(C#N)CC(c2ccccc2)Nc2ccccc2N1 (centres undefined)
T/C [4]: 92 % of control | T/C [1]: 98 % of control | T/C [5]: 100 % of control | T/C [2]: 96 % of control | T/C (dose: 264.0 mg/kg/injection, schedule: Q04DX003 (ip), vehicle: Klucel (hydroxypropylcellulose) (HPC)): 96 % of control and 97 % of control | T/C [6]: 97 % of control

CN(C)c1ccc(/C=C/c2ccc(N(C)C)cc2)cc1
T/C [4]: 98 % of control | T/C [1]: 98 % of control | T/C [5]: 102 % of control | T/C [2]: 94 % of control | T/C [6]: 93 % of control | T/C [3]: 100 % of control

CCCCN(CCCC)CC(O)c1cccc2c1cc(Cl)c1ccccc12 (centres undefined)
T/C [1]: 102 % of control | T/C [2]: 97 % of control | T/C [3]: 91 % of control

O=c1[nH]c2cnccc2c(=O)n1OS(=O)(=O)c1ccccc1
T/C (dose: 50.0 mg/kg/injection, schedule: Q01DX009 (ip), vehicle: Klucel (hydroxypropylcellulose) (HPC)): 90 % of control | T/C [4]: 90 % of control | T/C [5]: 97 % of control

CCC(C(C)N1CC(=O)NC(=O)C1)N1CC(=O)NC(=O)C1 (centres undefined)
T/C (dose: 0.5 mg/kg/injection, schedule: Q01DX009 (ip), vehicle: Klucel (hydroxypropylcellulose) (HPC)): 154 % of control | T/C (dose: 1.0 mg/kg/injection, schedule: Q04DX003 (ip), vehicle: Klucel (hydroxypropylcellulose) (HPC)): 120 % of control | T/C (dose: 2.0 mg/kg/injection, schedule: Q01DX009 (ip), vehicle: Klucel (hydroxypropylcellulose) (HPC)): 102 % of control | T/C (dose: 2.0 mg/kg/injection, schedule: Q04DX003 (oral), vehicle: Klucel (hydroxypropylcellulose) (HPC)): 123 % of control | T/C (dose: 4.0 mg/kg/injection, schedule: Q01DX009 (ip), vehicle: Klucel (hydroxypropylcellulose) (HPC)): 91 % of control | T/C (dose: 4.0 mg/kg/injection, schedule: Q04DX003 (ip), vehicle: Klucel (hydroxypropylcellulose) (HPC)): 203 % of control | T/C (dose: 8.0 mg/kg/injection, schedule: Q04DX003 (ip), vehicle: Klucel (hydroxypropylcellulose) (HPC)): 219 % of control | T/C (dose: 8.0 mg/kg/injection, schedule: Q04DX003 (oral), vehicle: Klucel (hydroxypropylcellulose) (HPC)): 161 % of control | T/C (dose: 16.0 mg/kg/injection, schedule: Q04DX003 (ip), vehicle: Klucel (hydroxypropylcellulose) (HPC)): 96 % of control | T/C (dose: 32.0 mg/kg/injection, schedule: Q04DX003 (ip), vehicle: Klucel (hydroxypropylcellulose) (HPC)): 119 % of control | T/C (dose: 64.0 mg/kg/injection, schedule: Q04DX003 (oral), vehicle: Klucel (hydroxypropylcellulose) (HPC)): 93 % of control

NCC(O)COc1ccccc1N (centres undefined)
T/C (dose: 3.12 mg/kg/injection, schedule: Q01DX009 (ip), vehicle: saline): 97 % of control | T/C (dose: 6.25 mg/kg/injection, schedule: Q01DX009 (ip), vehicle: saline): 106 % of control | T/C (dose: 12.5 mg/kg/injection, schedule: Q01DX009 (ip), vehicle: saline): 100 % of control | T/C (dose: 12.5 mg/kg/injection, schedule: Q04DX003 (ip), vehicle: saline): 93 % of control
